SMILES strings stand for the structures. pIC50: −log10 of the molar value. *1 amine or outer side, *2 acyl side, *3 side chain or, on linkers, in order; H or OH if unused. Where a SMILES comes first, the peptide text is derived from it. Bridges are numbered along the chain shown (N, C = ends). [ ]: non-standard residue; d: D form. The star is where a group is joined. ξ: configuration not given here. Phe(3-CF3) = N[C@@H](Cc1cccc(C(F)(F)F)c1)C(=O)O; Phe(4-COOH) = N[C@@H](Cc1ccc(C(=O)O)cc1)C(=O)O; Bip = N[C@@H](Cc1ccc(-c2ccccc2)cc1)C(=O)O; Phe(4-CN) = N#Cc1ccc(C[C@H](N)C(=O)O)cc1; NH(CH2)14COOH = O=C(O)CCCCCCCCCCCCCCN*; Phe(3-Me) = Cc1cccc(C[C@H](N)C(=O)O)c1; γGlu = O=C(O)[C@H](CCC(=O)[*:2])N[*:1]; NH(CH2)12COOH = O=C(O)CCCCCCCCCCCCN*; Val(3-OH) = CC(C)(O)[C@H](N)C(=O)O; hArg = N=C(N)NCCCC[C@H](N)C(=O)O; 4Pal = N[C@@H](Cc1ccncc1)C(=O)O; Cha = N[C@@H](CC1CCCCC1)C(=O)O; Cit = NC(=O)NCCC[C@H](N)C(=O)O; Thr(3ξ) = CC(O)[C@H](N)C(=O)O; 12Ado = NCCCCCCCCCCCC(=O)O; dDab = NCC[C@@H](N)C(=O)O; Carboxymethyl = O=C(O)C*; NMeA = CN[C@@H](C)C(=O)O; Orn = NCCC[C@H](N)C(=O)O; Aun = NCCCCCCCCCCC(=O)O; Dab = NCC[C@H](N)C(=O)O; Dap = NC[C@H](N)C(=O)O; AEEA = NCCOCCOCC(=O)O

T1 sequence (Q15116 25-288): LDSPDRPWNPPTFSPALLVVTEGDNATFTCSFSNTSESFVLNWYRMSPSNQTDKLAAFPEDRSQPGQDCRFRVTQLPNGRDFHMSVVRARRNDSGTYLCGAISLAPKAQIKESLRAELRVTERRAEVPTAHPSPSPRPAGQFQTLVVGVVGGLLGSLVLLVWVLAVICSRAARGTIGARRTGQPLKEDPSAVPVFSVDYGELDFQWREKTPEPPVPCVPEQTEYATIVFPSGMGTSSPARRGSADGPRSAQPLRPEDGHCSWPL

The first assay concerns the target T1, PD-1/PD-L1 interaction (PE-labeled human PD-L1-Ig binding to Jurkat cell line over-expressing human PD-1) (Homo sapiens, UniProt Q15116).
T1 construct: expressed in transfected cells; host or cells: Jurkat
Put plainly: Jurkat-PD-1 Cell Binding High-Content Screening Assay (CBA). Conditions: Jurkat-hPD-1 cells, PE-labeled PD-L1-Ig 20 nM final; read-out: Jurkat HPD1 PDL1 IC50. Summed up: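 Binding of 20 nM (final) PE-tagged PD-L1-Ig to compound-pretreated Jurkat-hPD-1 cells was measured by high-content imaging after 1 h. Pretreatment ran 2 h at 37 °C in DMEM with 10% fetal calf serum.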
As for `CC[C@H](C)[C@@H]1NC(=O)[C@H](Cc2ccc(-c3ccccc3)cc2)NC(=O)[C@H](CC(C)C)NC(=O)[C@H](Cc2c[nH]c3ccccc23)NC(=O)[C@H](CC(=O)O)NC(=O)[C@H](Cc2ccc(C(=O)O)cc2)NC(=O)[C@H](Cc2ccc(OCC(=O)O)cc2)NC(=O)CSC[C@@H](C(=O)N[C@@H](CN)C(=O)NCCCCCCCCCCC(=O)O)NC(=O)[C@H](CO)NC(=O)[C@H](C(C)C)NC(=O)[C@H](CC2CCCCC2)NC(=O)[C@H](CCN)NC(=O)[C@@H](CC(C)C)NC(=O)[C@H](C)N(C)C1=O` [Example 1070] ({CH2CO}-Y(Carboxymethyl)[Phe(4-COOH)]DWL[Bip]I[NMeA][dL][Dab][Cha]VSC[Dap][Aun]-OH; thioether N-14), the pIC50 is 7.41.

Regarding `CC(C)C[C@@H]1NC(=O)[C@H](Cc2c[nH]c3ccccc23)NC(=O)[C@H](CC(=O)O)NC(=O)[C@H](Cc2ccc(C(=O)O)cc2)NC(=O)[C@H](Cc2ccc(OCC(=O)O)cc2)NC(=O)CSC[C@@H](C(=O)N[C@@H](CCCN)C(=O)NCCOCCOCC(=O)NCCCCCCCCCCC(=O)O)NC(=O)[C@H](CCCCN)NC(=O)[C@H](C(C)C)NC(=O)[C@H](CC2CCCCC2)NC(=O)[C@H](CCN)NC(=O)[C@@H](CC(C)C)NC(=O)[C@H](C)N(C)C(=O)[C@H](C(C)C)NC(=O)[C@H](Cc2ccc(-c3ccccc3)cc2)NC1=O` [Example 2151] ({CH2CO}-Y(Carboxymethyl)[Phe(4-COOH)]DWL[Bip]V[NMeA][dL][Dab][Cha]VKC[Orn][AEEA][Aun]-OH; thioether N-14), the pIC50 is 8.07.

Consider `Cc1cccc(C[C@@H]2NC(=O)[C@H](CC(=O)O)NC(=O)[C@H](Cc3ccc(OCC(=O)O)cc3)NC(=O)[C@H](C(C)O)NC(=O)CSC[C@@H](C(=O)N[C@H](CC(N)=O)C(=O)NCCCCCCCCCCC(=O)O)NC(=O)[C@H](C(C)C)NC(=O)[C@H](C(C)C)NC(=O)[C@H](CC3CCCCC3)NC(=O)[C@H](CCN)NC(=O)[C@@H](CC(C)C)NC(=O)[C@H](C)N(C)C(=O)[C@H](Cc3ccc(OCC(=O)O)cc3)NC(=O)[C@H](Cc3ccc(-c4ccccc4)cc3)NC(=O)[C@H](Cc3ccc(OCC(=O)O)cc3)NC2=O)c1` (stereo partly drawn) [Example 2361] ({CH2CO}-[Thr(3ξ)]Y(Carboxymethyl)D[Phe(3-Me)]Y(Carboxymethyl)[Bip]Y(Carboxymethyl)[NMeA][dL][Dab][Cha]VVC[dN][Aun]-OH; thioether N-14), for which the pIC50 was 7.74.

With `Cc1cccc(C[C@@H]2NC(=O)[C@H](CC(=O)O)NC(=O)[C@H](Cc3ccc(OCC(=O)O)cc3)NC(=O)[C@H](CCCNC(=N)N)NC(=O)CSC[C@@H](C(=O)N[C@@H](CCN)C(=O)NCCCCCCCCCCC(=O)O)NC(=O)[C@H](C(C)O)NC(=O)[C@H](C(C)C)NC(=O)[C@H](CC3CCCCC3)NC(=O)[C@H](CCN)NC(=O)[C@@H](CC(C)C)NC(=O)[C@H](C)N(C)C(=O)[C@H](Cc3ccc(OCC(=O)O)cc3)NC(=O)[C@H](Cc3ccc(-c4ccccc4)cc3)NC(=O)[C@H](Cc3ccc(OCC(=O)O)cc3)NC2=O)c1` (stereo partly drawn) [Example 2307] ({CH2CO}-RY(Carboxymethyl)D[Phe(3-Me)]Y(Carboxymethyl)[Bip]Y(Carboxymethyl)[NMeA][dL][Dab][Cha]V[Thr(3ξ)]C[Dab][Aun]-OH; thioether N-14), the pIC50 was 7.86.

For the molecule `CC(C)C[C@H]1NC(=O)[C@H](C)N(C)C(=O)[C@H](Cc2ccc(OCC(=O)O)cc2)NC(=O)[C@H](Cc2ccc(-c3ccccc3)cc2)NC(=O)[C@H](Cc2ccc(OCC(=O)O)cc2)NC(=O)[C@H](Cc2c[nH]c3ccccc23)NC(=O)[C@H](CC(=O)O)NC(=O)[C@H](Cc2ccncc2)NC(=O)[C@H](Cc2ccc(OCC(=O)O)cc2)NC(=O)CSC[C@@H](C(=O)N[C@@H](CCCN)C(=O)NCCOCCOCC(=O)NCCCCCCCCCCC(=O)O)NC(=O)[C@H]([C@@H](C)O)NC(=O)[C@H](C(C)C)NC(=O)[C@H](CC2CCCCC2)NC(=O)[C@H](CC(N)=O)NC1=O` [Example 1379] ({CH2CO}-Y(Carboxymethyl)[4Pal]DWY(Carboxymethyl)[Bip]Y(Carboxymethyl)[NMeA][dL]N[Cha]VTC[Orn][AEEA][Aun]-OH; thioether N-14), the pIC50 was 6.76.

With `CC(C)C[C@@H]1NC(=O)[C@H](Cc2c[nH]c3ccccc23)NC(=O)[C@H](CC(=O)O)NC(=O)[C@H](Cc2ccc(OCC(=O)O)cc2)NC(=O)[C@H](CCCCNC(=N)N)NC(=O)CSC[C@@H](C(=O)N[C@@H](C)C(=O)N[C@@H](CCCCN)C(=O)NCCCCCCCCCCCCCCC(=O)O)NC(=O)[C@H](CO)NC(=O)[C@H](C(C)C)NC(=O)[C@H](CC(C)C)NC(=O)[C@H](Cc2c[nH]cn2)NC(=O)[C@@H](CC(C)C)NC(=O)[C@H](C)N(C)C(=O)[C@H](C(C)C)NC(=O)[C@H](Cc2ccc(-c3ccccc3)cc2)NC1=O` [Example 2003] ({CH2CO}-[hArg]Y(Carboxymethyl)DWL[Bip]V[NMeA][dL]HLVSCAK-{NH(CH2)14COOH}; thioether N-14), the pIC50 is 6.54.

As to `Cc1cccc(C[C@@H]2NC(=O)[C@H](CC(=O)O)NC(=O)[C@H](Cc3ccc(C(=O)O)cc3)NC(=O)[C@H](Cc3ccc(OCC(=O)O)cc3)NC(=O)CSC[C@@H](C(=O)NCCCCCCCCCCC(=O)O)NC(=O)[C@H](CCCNC(N)=O)NC(=O)[C@H](C(C)C)NC(=O)[C@H](CC3CCCCC3)NC(=O)[C@H](CCN)NC(=O)[C@@H](CC(C)C)NC(=O)[C@H](C)N(C)C(=O)[C@H](CCC(N)=O)NC(=O)[C@H](Cc3ccc(-c4ccccc4)cc3)NC(=O)[C@H](CC(C)C)NC2=O)c1` [Example 2246] ({CH2CO}-Y(Carboxymethyl)[Phe(4-COOH)]D[Phe(3-Me)]L[Bip]Q[NMeA][dL][Dab][Cha]V[Cit]C[Aun]-OH; thioether N-14), the pIC50 is 7.79.

Regarding `CC(C)C[C@H]1NC(=O)[C@H](C)N(C)C(=O)[C@H](C(C)C)NC(=O)[C@H](Cc2ccc(-c3ccccc3)cc2)NC(=O)[C@H](C(C)C)NC(=O)[C@H](Cc2c[nH]c3ccccc23)NC(=O)[C@H](CC(=O)O)NC(=O)[C@H](CCCCNC(=N)N)NC(=O)[C@H](Cc2ccc(OCC(=O)O)cc2)NC(=O)CSC[C@@H](C(=O)N[C@@H](CCCN)C(=O)NCCOCCOCC(=O)NCCCCCCCCCCC(=O)O)NC(=O)[C@H](C(C)O)NC(=O)[C@H](C(C)C)NC(=O)[C@H](CC2CCCCC2)NC(=O)[C@H](CCN)NC1=O` (stereo partly drawn) [Example 2111] ({CH2CO}-Y(Carboxymethyl)[hArg]DWV[Bip]V[NMeA][dL][Dab][Cha]V[Thr(3ξ)]C[Orn][AEEA][Aun]-OH; thioether N-14), the negative logarithm of the IC50 (pIC50) is 7.52.

With `CC(C)C[C@H]1NC(=O)[C@H](C)N(C)C(=O)[C@H](C(C)C)NC(=O)[C@H](Cc2ccc(-c3ccccc3)cc2)NC(=O)[C@H](C(C)C)NC(=O)[C@H](Cc2c[nH]c3ccccc23)NC(=O)[C@H](CC(=O)O)NC(=O)[C@H](Cc2ccc(OCC(=O)O)cc2)NC(=O)[C@H](Cc2ccncc2)NC(=O)CSC[C@@H](C(=O)N[C@@H](CCN)C(=O)NCCOCCOCC(=O)N[C@@H](CCC(=O)NCCOCCOCC(=O)N[C@@H](CCCCN)C(=O)NCCCCCCCCCCCC(=O)O)C(=O)O)NC(=O)[C@H](CO)NC(=O)[C@H](C(C)C)NC(=O)[C@H](CC2CCCCC2)NC(=O)[C@H](CCN)NC1=O` [Example 2118] ({CH2CO}-[4Pal]Y(Carboxymethyl)DWV[Bip]V[NMeA][dL][Dab][Cha]VSC[Dab][AEEA][γGlu][AEEA]K[12Ado]-OH; thioether N-14), the pIC50 is 7.84.

The same assay, now with this note: PE-labeled PD-L1-Ig 20 nM final, Jurkat-hPD-1 cells; read-out: Jurkat HPD1 PDL1 IC50.
For `Cc1cccc(C[C@@H]2NC(=O)[C@H](CC(=O)O)NC(=O)[C@H](Cc3ccc(C#N)cc3)NC(=O)[C@H](C(C)O)NC(=O)CSC[C@@H](C(=O)N[C@@H](CCN)C(=O)NCCOCCOCC(=O)NCCOCCOCC(=O)NCCCCCCCCCCC(=O)O)NC(=O)[C@H](Cc3cnc[nH]3)NC(=O)[C@H](C(C)O)NC(=O)[C@H](CC3CCCCC3)NC(=O)[C@H](CCN)NC(=O)[C@@H](CC(C)C)NC(=O)[C@H](C)N(C)C(=O)[C@H](Cc3ccc(OCC(=O)O)cc3)NC(=O)[C@H](Cc3ccc(-c4ccccc4)cc3)NC(=O)[C@H](Cc3ccc(OCC(=O)O)cc3)NC2=O)c1` (stereo partly drawn) [Example 2525] ({CH2CO}-[Thr(3ξ)][Phe(4-CN)]D[Phe(3-Me)]Y(Carboxymethyl)[Bip]Y(Carboxymethyl)[NMeA][dL][Dab][Cha][Thr(3ξ)]HC[Dab][AEEA][AEEA][Aun]-OH; thioether N-14), the pIC50 was 8.10.

Turning to `CC(C)C[C@H]1NC(=O)[C@H](C)N(C)C(=O)[C@H](Cc2ccc(C(=O)O)cc2)NC(=O)[C@H](Cc2ccc(-c3ccccc3)cc2)NC(=O)[C@H](Cc2ccc(C(=O)O)cc2)NC(=O)[C@H](Cc2cccc(C(F)(F)F)c2)NC(=O)[C@H](CC(=O)O)NC(=O)[C@H](Cc2ccc(C(=O)O)cc2)NC(=O)[C@H](C(C)O)NC(=O)CSC[C@@H](C(=O)N[C@H](CCN)C(=O)NCCOCCOCC(=O)NCCCCCCCCCCCCC(=O)O)NC(=O)[C@H](CC(=O)O)NC(=O)[C@H](C(C)C)NC(=O)[C@H](CC2CCCCC2)NC(=O)[C@H](CCN)NC1=O` (stereo partly drawn) [Example 2604] ({CH2CO}-[Thr(3ξ)][Phe(4-COOH)]D[Phe(3-CF3)][Phe(4-COOH)][Bip][Phe(4-COOH)][NMeA][dL][Dab][Cha]VDC[dDab][AEEA]-{NH(CH2)12COOH}; thioether N-14), the pIC50 was 6.37.

As to `CC(C)C[C@H]1NC(=O)[C@H](C)N(C)C(=O)[C@H](CCC(N)=O)NC(=O)[C@H](Cc2ccc(-c3ccccc3)cc2)NC(=O)[C@H](Cc2ccc(OCC(=O)O)cc2)NC(=O)[C@H](Cc2cccc(C(F)(F)F)c2)NC(=O)[C@H](CC(=O)O)NC(=O)[C@H](Cc2ccc(OCC(=O)O)cc2)NC(=O)[C@H](C)NC(=O)CSC[C@@H](C(=O)N[C@@H](CCN)C(=O)NCCCCCCCCCCCCC(=O)O)NC(=O)[C@H](CCC(=O)O)NC(=O)[C@H](C(C)(C)O)NC(=O)[C@H](CC2CCCCC2)NC(=O)[C@H](CCN)NC1=O` [Example 2629] ({CH2CO}-AY(Carboxymethyl)D[Phe(3-CF3)]Y(Carboxymethyl)[Bip]Q[NMeA][dL][Dab][Cha][Val(3-OH)]EC[Dab]-{NH(CH2)12COOH}; thioether N-14), the negative logarithm of the IC50 (pIC50) was 7.51.

For the origin of these results see patent US20260070945A1, “MACROCYCLIC IMMUNOMODULATORS” (Bristol-Myers Squibb Company, priority 2022, published 2026).
